For two molecules, EC50 results are on record in patent US20140213513A1 (Sanofi, priority 2012, published 2014).

What all share (assay type): cell-based
What all share (details): Table 7; cAMP formation
For orientation: Cyclic AMP is a second messenger, typically raised through Gs and lowered through Gi signalling.

Test [1] addresses T1, human glucagon receptor (hGLUC R) (Homo sapiens, UniProt P47871).
T1 construct: expressed in transfected cells
Put plainly: cAMP response of HEK-293 cells stably expressing human glucagon receptor (HTRF). The method in brief:
(§1)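 Intracellular cAMP is quantified by HTRF following a 30-minute room-temperature incubation of cell suspensions (400000 cells/ml) with test compound in HBSS, 20 mM HEPES, 0.1% BSA and 2 mM IBMX.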
(In general: TR-FRET usually uses a lanthanide donor and a delayed reading to cut background.)

For test [2], the target named is T2, human GIP receptor (hGIP R) (Homo sapiens, UniProt P48546).
T2 construct: expressed in transfected cells
T2 sequence (P48546 22-466): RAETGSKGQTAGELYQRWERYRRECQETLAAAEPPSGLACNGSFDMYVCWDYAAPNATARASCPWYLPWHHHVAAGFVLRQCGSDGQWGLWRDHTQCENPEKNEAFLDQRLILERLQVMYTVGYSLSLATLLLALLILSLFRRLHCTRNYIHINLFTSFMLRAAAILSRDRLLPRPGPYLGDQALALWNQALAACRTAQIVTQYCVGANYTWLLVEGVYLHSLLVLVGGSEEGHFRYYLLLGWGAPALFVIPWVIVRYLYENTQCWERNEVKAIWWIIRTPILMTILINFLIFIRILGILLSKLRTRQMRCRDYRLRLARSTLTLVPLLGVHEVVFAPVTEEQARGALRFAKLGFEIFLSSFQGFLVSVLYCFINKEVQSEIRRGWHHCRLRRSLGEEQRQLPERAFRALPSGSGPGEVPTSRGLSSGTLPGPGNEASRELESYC
In words: cAMP response of HEK-293 cells stably expressing human GIP receptor (HTRF). The method in brief:
as §1

The target of test [3] is T3, human GLP-1 receptor (hGLP-1 R) (Homo sapiens, UniProt P43220).
T3 construct: expressed in transfected cells
Put plainly: cAMP response of HEK-293 cells stably expressing human GLP-1 receptor (HTRF). The method in brief:
as §1

*1 amine or outer side, *2 acyl side, *3 side chain or, on linkers, in order; H or OH if unused. Where a SMILES comes first, the peptide text is derived from it. Side-chain parts run from the residue outwards. [ ]: non-standard residue; d: D form. The star is where a group is joined. γGlu = O=C(O)[C@H](CCC(=O)[*:2])N[*:1]; Stearoyl = CCCCCCCCCCCCCCCCCC(=O)*; Palmitoyl = CCCCCCCCCCCCCCCC(=O)*; Aib = CC(C)(N)C(=O)O

T3 sequence (P43220 24-463): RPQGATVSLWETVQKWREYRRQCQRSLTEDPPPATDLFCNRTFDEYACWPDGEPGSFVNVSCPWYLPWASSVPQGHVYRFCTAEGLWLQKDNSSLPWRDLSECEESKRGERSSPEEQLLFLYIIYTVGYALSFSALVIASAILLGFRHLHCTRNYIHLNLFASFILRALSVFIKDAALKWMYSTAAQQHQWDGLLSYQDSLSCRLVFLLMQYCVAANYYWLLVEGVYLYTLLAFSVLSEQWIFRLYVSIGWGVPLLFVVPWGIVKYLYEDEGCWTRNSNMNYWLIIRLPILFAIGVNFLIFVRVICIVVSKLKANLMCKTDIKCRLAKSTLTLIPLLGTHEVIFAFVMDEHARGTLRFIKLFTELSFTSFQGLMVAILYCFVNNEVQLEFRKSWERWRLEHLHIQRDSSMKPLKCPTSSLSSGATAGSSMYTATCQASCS
T1 sequence (P47871 26-477): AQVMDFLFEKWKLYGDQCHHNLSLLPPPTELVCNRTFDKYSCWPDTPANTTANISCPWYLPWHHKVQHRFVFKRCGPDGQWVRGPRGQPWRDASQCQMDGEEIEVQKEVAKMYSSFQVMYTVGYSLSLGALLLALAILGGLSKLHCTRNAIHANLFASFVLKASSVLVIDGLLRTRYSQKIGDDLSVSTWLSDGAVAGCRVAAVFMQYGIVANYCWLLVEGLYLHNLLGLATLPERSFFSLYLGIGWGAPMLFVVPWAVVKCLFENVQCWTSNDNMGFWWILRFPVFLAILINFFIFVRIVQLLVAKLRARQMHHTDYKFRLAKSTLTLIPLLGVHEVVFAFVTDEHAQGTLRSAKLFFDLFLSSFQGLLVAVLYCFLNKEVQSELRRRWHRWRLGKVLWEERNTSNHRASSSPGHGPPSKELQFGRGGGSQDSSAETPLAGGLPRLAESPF

As for `CCCCCCCCCCCCCCCCCC(=O)N[C@@H](CCC(=O)NCCCC[C@H](NC(=O)[C@H](CCC(N)=O)NC(=O)[C@H](CCCCN)NC(=O)[C@H](CO)NC(=O)[C@H](CC(C)C)NC(=O)[C@H](CC(=O)O)NC(=O)[C@H](CO)NC(=O)[C@@H](NC(=O)[C@H](Cc1ccccc1)NC(=O)[C@@H](NC(=O)CNC(=O)[C@H](CCC(N)=O)NC(=O)C(C)(C)NC(=O)[C@@H](N)Cc1ccc(O)cc1)[C@@H](C)O)[C@@H](C)O)C(=O)N[C@@H](CC(=O)O)C(=O)N[C@@H](CCC(=O)O)C(=O)N[C@@H](CCC(=O)O)C(=O)N[C@@H](C)C(=O)N[C@@H](C)C(=O)N[C@@H](CCCNC(=N)N)C(=O)N[C@@H](CC(C)C)C(=O)N[C@@H](Cc1ccccc1)C(=O)N[C@H](C(=O)N[C@@H](CCC(=O)O)C(=O)N[C@@H](Cc1c[nH]c2ccccc12)C(=O)N[C@@H](CC(C)C)C(=O)N[C@@H](CCCCN)C(=O)N[C@@H](C)C(=O)NCC(=O)NCC(=O)N1CCC[C@H]1C(=O)N[C@@H](CO)C(=O)N[C@@H](CO)C(=O)NCC(=O)N[C@@H](C)C(=O)N1CCC[C@H]1C(=O)N1CCC[C@H]1C(=O)N1CCC[C@H]1C(=O)N[C@@H](CO)C(N)=O)[C@@H](C)CC)C(=O)O` [SEQ ID NO: 60, Y-Aib-Q-G-T-F-T-S-D-L-S-K-Q-K(yE-x70)-DEEAARLFIEWLKAGGPSSGAPPPS-NH2] (H-Y[Aib]QGTFTSDLSKQK([γGlu-Stearoyl])DEEAARLFIEWLKAGGPSSGAPPPS-NH2), the EC50 – broadly, the concentration that produces a half-maximal response – in test [1] came out at 9.1 pM; in test [2] it was 16.8 pM; in test [3], 5.3 pM.

Consider `CCCCCCCCCCCCCCCC(=O)N[C@@H](CCC(=O)NCCCC[C@H](NC(=O)[C@H](CCC(N)=O)NC(=O)[C@H](CCCCN)NC(=O)[C@H](CO)NC(=O)[C@H](CC(C)C)NC(=O)[C@H](CC(=O)O)NC(=O)[C@H](CO)NC(=O)[C@@H](NC(=O)[C@H](Cc1ccccc1)NC(=O)[C@@H](NC(=O)CNC(=O)[C@H](CCC(N)=O)NC(=O)C(C)(C)NC(=O)[C@@H](N)Cc1ccc(O)cc1)[C@@H](C)O)[C@@H](C)O)C(=O)N[C@@H](CC(=O)O)C(=O)N[C@@H](CO)C(=O)N[C@@H](CCCCN)C(=O)N[C@@H](C)C(=O)N[C@@H](C)C(=O)N[C@@H](CCC(N)=O)C(=O)N[C@@H](CC(=O)O)C(=O)N[C@@H](Cc1ccccc1)C(=O)N[C@H](C(=O)N[C@@H](CCC(=O)O)C(=O)N[C@@H](Cc1c[nH]c2ccccc12)C(=O)N[C@@H](CC(C)C)C(=O)N[C@@H](CCCCN)C(=O)N[C@@H](C)C(=O)NCC(=O)NCC(=O)N1CCC[C@H]1C(=O)N[C@@H](CO)C(=O)N[C@@H](CO)C(=O)NCC(=O)N[C@@H](C)C(=O)N1CCC[C@H]1C(=O)N1CCC[C@H]1C(=O)N1CCC[C@H]1C(=O)N[C@@H](CO)C(N)=O)[C@@H](C)CC)C(=O)O` [SEQ ID NO: 61, Y-Aib-Q-G-T-F-T-S-D-L-S-K-Q-K(yE-x53)-DSKAAQDFIEWLKAGGPSSGAPPPS-NH2] (H-Y[Aib]QGTFTSDLSKQK([γGlu-Palmitoyl])DSKAAQDFIEWLKAGGPSSGAPPPS-NH2), for which the EC50 was found to be 6.1 pM in test [1], 21.4 pM in test [2] and 2.4 pM in test [3].
